# Data as given in ChEMBL document CHEMBL1201862, “PubChem BioAssay data set” (2004).
# Activity calls are given as the source filed them.
# Tests used:
# [1] = biological target: Serine/threonine-protein phosphatase PP1-alpha catalytic subunit (Homo sapiens, UniProt P62136); experiment: PP1 phosphatase inhibitors, dose response, biochemical, fluorescence (AID 2403);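 further: phosphatase turnover of OMFP into fluorescent 3-O-methylfluorescein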
# [2] = inhibitors of intracellular T. cruzi replication, confirmation, NIH3T3 host cells, beta-gal luminescence (AID 2044); assay type: functional, cell-based;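 further: intracellular parasites grown in NIH/3T3 mouse fibroblasts as host cells; luminescent beta-galactosidase reporter signal from transgenic T. cruzi replicating inside host cells; inhibitors lower the luminescence signal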
# [3] = biological target: Serine/threonine-protein phosphatase (Homo sapiens, UniProt Q9BPW0); experiment: Counterscreen for inhibitors of PP1: fluorescence-based biochemical high throughput dose response assay to identify inhibitors of Protein Phosphatase 5 (PP5). [Related pubchem assays: 2034 (Summary (PP5 inhibitors)), 1987 (PP5 inhibitors in singlate), 2235 (PP1 inhibitors in singlate)]
# [4] = cytotoxicity toward NIH3T3 fibroblasts, dose response, counter-screen, cell-based, ATP luminescence, mouse fibroblasts (AID 2010); assay type: functional;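 further: cells exposed to compound for about 90 hours before reading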
# [5] = Shn3 3'UTR reporter inhibitors, dose response, cell-based, Clone20 osteoblasts, firefly luciferase, cherry-picked (AID 624132); assay type: functional;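 further: firefly luciferase luminescence from reporter carrying the Shn3 3'UTR in osteoblasts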
# [6] = HepG2 cell cytotoxicity, dose response, cytotoxicity control for Shn3 inhibitor project, CellTiter-Glo, cherry-picked (AID 624134); assay type: functional, cell-based
# [7] = control 3'UTR Renilla luciferase suppression, dose response, counter-screen for Shn3 inhibitor project, cell-based, Clone20-Shn3RL, cherry-picked (AID 624133); assay type: functional
# Bcl-2-like protein 10 = Bcl-2-like protein 10 (Homo sapiens, UniProt Q9HD36); experiment: displacers of TR3 peptide from Bcl-B, primary screen, selectivity assay for Bfl-1 inhibitor project, biochemical, fluorescence polarization, FITC-TR3 peptide (AID 748);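 further: fluorescence polarization from a fluorescein-labelled TR3 peptide binding purified Bcl-B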
# [8] = biological target: Luciferin 4-monooxygenase (Photinus pyralis, UniProt P08659); experiment: firefly luciferase enzyme inhibitors, dose response, biochemical, luminescence (AID 1891)
# [9] = Luminescence Cell-Based Dose Confirmation HTS to Identify Inhibitors of Platelet Dense Granule Release. [Related pubchem assays: 1663 (Primary HTS), 1678 (Summary of Project)]; assay type: functional
# [10] = Luminescence-based counterscreen assay for KLF5 inhibitors: dose response cell-based high throughput screening assay to identify cytotoxic compounds using the IEC-6 intestinal epithelial cell line. [Related pubchem assays: 1700 (Primary screen.), 1834 (Confirmation screen.), 1858 (Summary AID.), 1905 (Counterscreen.)]; assay type: functional
# [11] = cytotoxicity in HEK-293T cells, dose response, cytotoxicity control for TCR NF-kB inhibitor project, luminescence, T-cell screen hits (AID 489026); assay type: functional, cell-based;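 further: cells exposed to compound about 14 hours before the viability readout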
# [12] = biological target: T1, Microphthalmia-associated transcription factor (Homo sapiens, UniProt O75030); experiment: TRPM1 promoter luciferase signal decrease, dose response, MITF inhibitor project, cell-based, SK-MEL-5, cherry-picked, set 3 (AID 493073); assay type: functional
# T1 sequence (O75030 whole entry): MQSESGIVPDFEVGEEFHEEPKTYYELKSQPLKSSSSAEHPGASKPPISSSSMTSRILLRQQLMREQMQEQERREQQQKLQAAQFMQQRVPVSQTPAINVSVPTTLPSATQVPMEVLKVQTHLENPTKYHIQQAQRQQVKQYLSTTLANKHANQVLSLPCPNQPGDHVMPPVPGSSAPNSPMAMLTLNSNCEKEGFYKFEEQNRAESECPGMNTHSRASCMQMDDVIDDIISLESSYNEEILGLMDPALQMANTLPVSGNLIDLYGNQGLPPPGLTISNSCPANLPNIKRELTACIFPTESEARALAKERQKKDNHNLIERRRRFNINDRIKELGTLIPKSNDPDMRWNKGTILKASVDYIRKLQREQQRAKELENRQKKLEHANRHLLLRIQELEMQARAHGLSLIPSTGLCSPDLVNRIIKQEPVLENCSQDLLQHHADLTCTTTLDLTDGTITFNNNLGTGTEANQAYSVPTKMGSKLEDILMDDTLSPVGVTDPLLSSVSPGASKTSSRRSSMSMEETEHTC
# A-375 = experiment: MITF: Counter assay: A375 proliferation Measured in Cell-Based System Using Plate Reader - 2084-03_Inhibitor_Dose_DryPowder_Activity. [Related pubchem assays (depositor defined):AID488944]; assay type: functional; settings: Homo sapiens
# Paired box protein Pax-8 = Paired box protein Pax-8 (Homo sapiens, UniProt Q06710); experiment: inhibitors of PAX8-driven TPO luciferase reporter, dose response, RMG-I cells, cherry-pick (AID 687027); assay type: functional, cell-based;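 further: luciferase reporter driven by Pax8 target thyroperoxidase promoter measured by SteadyGlo luminescence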
# [13] = non-specific cell cytotoxicity, dose response, cytotoxicity control for PAX8 inhibitor project, plate reader, dry powder samples (AID 743021); assay type: functional, cell-based
# [14] = Counterscreen for IDE inhibitors: Luminescence-based cell-based high throughput dose response assay to identify compounds that are cytotoxic to HEK cells. [Related pubchem assays: 434962 (Primary screen (IDE inhibitors in singlicate)), 449730 (Counterscreen (Cytotoxicity in triplicate)), 435028 (Confirmation (IDE inhibitors in triplicate)) …; assay type: functional; settings: HEK293
# Insulin-degrading enzyme = biological target: T2, Insulin-degrading enzyme (Homo sapiens, UniProt P14735); experiment: Dose Response: Fluorescence polarization-based cell-based high throughput dose response assay for inhibitors of insulin-degrading enzyme (IDE). [Related pubchem assays: 434962 (Primary screen (IDE inhibitors in singlicate)), 449730 (Counterscreen (Cytotoxicity in triplicate)), 435028 (Confirmation (IDE inhibitors in triplicate)), 434984 (Summary …; assay type: functional
# T2 sequence (P14735 whole entry): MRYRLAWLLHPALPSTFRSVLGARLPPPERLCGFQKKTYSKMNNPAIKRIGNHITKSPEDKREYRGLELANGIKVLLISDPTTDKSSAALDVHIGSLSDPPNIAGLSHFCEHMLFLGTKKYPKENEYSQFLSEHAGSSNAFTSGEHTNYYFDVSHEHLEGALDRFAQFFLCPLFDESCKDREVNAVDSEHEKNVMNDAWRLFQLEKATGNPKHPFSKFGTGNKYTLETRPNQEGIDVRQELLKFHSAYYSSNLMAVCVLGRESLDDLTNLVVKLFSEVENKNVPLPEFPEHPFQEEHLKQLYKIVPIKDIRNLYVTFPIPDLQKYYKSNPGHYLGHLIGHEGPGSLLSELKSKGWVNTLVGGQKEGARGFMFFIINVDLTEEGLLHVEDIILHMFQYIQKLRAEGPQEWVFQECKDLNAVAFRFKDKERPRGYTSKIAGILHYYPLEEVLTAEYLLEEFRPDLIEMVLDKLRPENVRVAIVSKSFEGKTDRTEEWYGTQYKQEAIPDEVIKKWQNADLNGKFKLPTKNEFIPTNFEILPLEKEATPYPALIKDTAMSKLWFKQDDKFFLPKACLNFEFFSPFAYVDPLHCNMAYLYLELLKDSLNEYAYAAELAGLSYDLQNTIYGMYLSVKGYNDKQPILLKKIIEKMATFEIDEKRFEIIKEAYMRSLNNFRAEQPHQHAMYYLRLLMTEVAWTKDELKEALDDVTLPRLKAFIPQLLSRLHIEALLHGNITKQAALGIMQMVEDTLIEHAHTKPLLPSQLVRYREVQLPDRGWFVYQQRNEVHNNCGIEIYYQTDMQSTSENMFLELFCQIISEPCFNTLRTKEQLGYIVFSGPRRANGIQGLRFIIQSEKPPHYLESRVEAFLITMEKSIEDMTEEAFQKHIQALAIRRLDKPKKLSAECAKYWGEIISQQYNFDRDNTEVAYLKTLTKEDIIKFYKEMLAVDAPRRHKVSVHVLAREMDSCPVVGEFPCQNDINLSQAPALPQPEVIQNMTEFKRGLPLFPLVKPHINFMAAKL
# [15] = biological target: G-protein coupled receptor 55 (Homo sapiens, UniProt Q9Y2T6); experiment: GPR55 agonists via beta-arrestin recruitment, primary screen, imaging, U2OS cells, beta-arrestin-GFP redistribution (AID 1961); assay type: functional
# [16] = biological target: T3, Short transient receptor potential channel 4 (Mus musculus, UniProt Q9QUQ5); experiment: mouse TRPC4 channel activators, dose response, cell-based, HEK293 TRPC4/mu-opioid, Fluo-4 calcium (AID 434937); assay type: functional
# T3 sequence (Q9QUQ5 whole entry): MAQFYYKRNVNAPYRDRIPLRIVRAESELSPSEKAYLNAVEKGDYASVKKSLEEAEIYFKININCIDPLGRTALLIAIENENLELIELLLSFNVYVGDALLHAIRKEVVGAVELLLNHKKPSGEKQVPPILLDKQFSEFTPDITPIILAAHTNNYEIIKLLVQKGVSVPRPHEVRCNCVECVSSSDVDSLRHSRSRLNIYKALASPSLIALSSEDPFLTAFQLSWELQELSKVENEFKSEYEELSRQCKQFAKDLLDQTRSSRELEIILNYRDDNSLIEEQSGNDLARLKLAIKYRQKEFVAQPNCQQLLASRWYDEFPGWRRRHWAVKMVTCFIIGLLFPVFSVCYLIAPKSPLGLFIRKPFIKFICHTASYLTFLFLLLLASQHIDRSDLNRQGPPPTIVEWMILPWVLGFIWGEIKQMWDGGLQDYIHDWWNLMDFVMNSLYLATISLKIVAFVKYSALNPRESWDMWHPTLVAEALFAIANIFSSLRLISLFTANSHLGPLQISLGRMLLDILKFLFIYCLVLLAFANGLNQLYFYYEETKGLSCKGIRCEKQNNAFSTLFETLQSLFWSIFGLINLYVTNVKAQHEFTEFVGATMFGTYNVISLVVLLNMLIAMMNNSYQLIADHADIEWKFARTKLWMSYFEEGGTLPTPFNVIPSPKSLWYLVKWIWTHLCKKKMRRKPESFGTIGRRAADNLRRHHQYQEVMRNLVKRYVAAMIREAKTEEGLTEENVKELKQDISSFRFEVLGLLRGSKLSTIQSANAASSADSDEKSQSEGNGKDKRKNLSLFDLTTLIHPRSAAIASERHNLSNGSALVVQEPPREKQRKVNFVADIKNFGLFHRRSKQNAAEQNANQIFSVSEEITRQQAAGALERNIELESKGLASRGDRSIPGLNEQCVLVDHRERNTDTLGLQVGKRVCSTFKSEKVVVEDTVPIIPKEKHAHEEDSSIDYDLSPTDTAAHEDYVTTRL
# [17] = microbe, parasite or virus in culture; assay type: functional; settings: Mycobacterium tuberculosis
# [18] = biological target: NACHT, LRR and PYD domains-containing protein 3 (Homo sapiens, UniProt Q96P20); experiment: NALP3 inhibitors in yeast, dose response, luminescent (AID 488799); assay type: functional
# SUMO-activating enzyme [19] = biological target: T4, SUMO-activating enzyme (Homo sapiens, UniProt Q9UBT2); experiment: SUMOylation inhibitor hit validation, confirmation, SUMOylation inhibitor project, biochemical, AlphaScreen (AID 2018); assay type: functional
# [20] = HIV-1 Env-mediated cell fusion inhibitors, dose response, CCR5-tropic Env (AID 2279); assay type: functional
# SUMO-activating enzyme [21] = biological target: T4, SUMO-activating enzyme; experiment: inhibitors of in vitro SUMOylation cascade, primary screen, biochemical, HTRF, uHTS (AID 2006); assay type: protein-complex assay
# [22] = biological target: Induced myeloid leukemia cell differentiation protein Mcl-1 (Homo sapiens, UniProt Q07820); assay type: functional
# [23] = biological target: G2/mitotic-specific cyclin-B1 (Homo sapiens, UniProt P14635); experiment: Counterscreen assay for inhibitors of Wee1 degradation: dose response cell-based assay to identify inhibitors of cyclin B degradation. [Related pubchem assays: 1410, 1321 ]; assay type: functional
# [24] = Luminescence Cell-Based Dose Response HTS to Identify Activators of Luciferase Translation or Activity in H4 […] Cells. [Related pubchem assays: 1829 (Project Summary), 1814 (Primary HTS)]; assay type: functional
# Wee1-like protein kinase = Wee1-like protein kinase (Homo sapiens, UniProt P30291); experiment: Dose Response Cell-based Assay for Inhibitors of Wee1 Degradation. [Related pubchem assays: 1410, 1321 ]; assay type: functional
# H4 = experiment: Luminescence Cell-Based Dose Response HTS to Identify Activators of 5'UTR Stem-Loop Driven Prion Protein mRNA Translation in H4 Neuroglioblastoma Cells. [Related pubchem assays: 1829 (Project Summary), 1814 (Primary HTS)]; assay type: functional; settings: Homo sapiens
# Aminopeptidase N = Aminopeptidase N (Plasmodium falciparum FcB1/Columbia, UniProt O96935); experiment: P. falciparum M1AAP inhibitors, biochemical, fluorogenic H-Leu-NHMec substrate, 1536-well (AID 1445); set-up: species or system Plasmodium falciparum 3D7, 3D7
# [25] = Cytotoxicity screening for potential Inhibitors of Bacterial Capsule Biogenesis. [Related pubchem assays (depositor defined):AID488970]; assay type: functional
# [26] = biological target: FAD-linked sulfhydryl oxidase ALR (Homo sapiens, UniProt P55789); experiment: inhibitors of human ALR sulfhydryl oxidase, dose response, biochemical, H2O2 detection, luminescence, cherry-pick (AID 493248)
# Sequence of FAD-linked sulfhydryl oxidase ALR (P55789 whole entry): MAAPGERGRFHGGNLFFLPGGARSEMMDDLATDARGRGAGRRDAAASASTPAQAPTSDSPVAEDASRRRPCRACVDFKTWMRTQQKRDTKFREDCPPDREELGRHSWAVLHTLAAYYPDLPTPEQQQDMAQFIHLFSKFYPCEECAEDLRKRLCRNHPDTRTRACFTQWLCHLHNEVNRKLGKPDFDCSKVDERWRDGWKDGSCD
# T4 sequence (Q9UBE0 whole entry, the tested form may be a part): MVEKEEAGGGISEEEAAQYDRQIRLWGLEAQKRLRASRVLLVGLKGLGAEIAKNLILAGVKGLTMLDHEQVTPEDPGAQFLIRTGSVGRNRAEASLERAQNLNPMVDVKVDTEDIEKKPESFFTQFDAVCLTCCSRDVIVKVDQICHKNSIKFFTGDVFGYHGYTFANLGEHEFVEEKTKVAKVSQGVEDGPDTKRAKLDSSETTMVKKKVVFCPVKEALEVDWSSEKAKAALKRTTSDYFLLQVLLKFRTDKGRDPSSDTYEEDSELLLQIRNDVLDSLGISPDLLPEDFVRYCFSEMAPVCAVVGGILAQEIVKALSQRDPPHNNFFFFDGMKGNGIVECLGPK
# T4 sequence (Q9UBT2 whole entry, the tested form may be a part): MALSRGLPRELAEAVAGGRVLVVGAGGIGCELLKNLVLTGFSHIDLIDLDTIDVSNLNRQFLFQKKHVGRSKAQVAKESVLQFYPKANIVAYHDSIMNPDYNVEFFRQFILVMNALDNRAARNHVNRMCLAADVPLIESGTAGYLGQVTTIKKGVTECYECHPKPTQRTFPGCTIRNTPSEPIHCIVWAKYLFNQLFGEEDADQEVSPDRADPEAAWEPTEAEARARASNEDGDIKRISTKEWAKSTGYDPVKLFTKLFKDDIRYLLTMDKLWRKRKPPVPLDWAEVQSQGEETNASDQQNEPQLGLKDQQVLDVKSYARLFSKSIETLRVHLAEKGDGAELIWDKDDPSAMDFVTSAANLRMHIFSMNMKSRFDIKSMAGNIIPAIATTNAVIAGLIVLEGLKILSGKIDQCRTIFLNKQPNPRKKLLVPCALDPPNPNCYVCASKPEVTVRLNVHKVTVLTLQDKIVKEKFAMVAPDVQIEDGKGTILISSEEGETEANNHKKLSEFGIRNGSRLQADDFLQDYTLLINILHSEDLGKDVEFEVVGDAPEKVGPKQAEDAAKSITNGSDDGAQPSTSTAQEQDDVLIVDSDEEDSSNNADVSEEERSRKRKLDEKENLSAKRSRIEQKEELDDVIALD
# Sequence of NACHT, LRR and PYD domains-containing protein 3 (Q96P20 whole entry, the tested form may be a part): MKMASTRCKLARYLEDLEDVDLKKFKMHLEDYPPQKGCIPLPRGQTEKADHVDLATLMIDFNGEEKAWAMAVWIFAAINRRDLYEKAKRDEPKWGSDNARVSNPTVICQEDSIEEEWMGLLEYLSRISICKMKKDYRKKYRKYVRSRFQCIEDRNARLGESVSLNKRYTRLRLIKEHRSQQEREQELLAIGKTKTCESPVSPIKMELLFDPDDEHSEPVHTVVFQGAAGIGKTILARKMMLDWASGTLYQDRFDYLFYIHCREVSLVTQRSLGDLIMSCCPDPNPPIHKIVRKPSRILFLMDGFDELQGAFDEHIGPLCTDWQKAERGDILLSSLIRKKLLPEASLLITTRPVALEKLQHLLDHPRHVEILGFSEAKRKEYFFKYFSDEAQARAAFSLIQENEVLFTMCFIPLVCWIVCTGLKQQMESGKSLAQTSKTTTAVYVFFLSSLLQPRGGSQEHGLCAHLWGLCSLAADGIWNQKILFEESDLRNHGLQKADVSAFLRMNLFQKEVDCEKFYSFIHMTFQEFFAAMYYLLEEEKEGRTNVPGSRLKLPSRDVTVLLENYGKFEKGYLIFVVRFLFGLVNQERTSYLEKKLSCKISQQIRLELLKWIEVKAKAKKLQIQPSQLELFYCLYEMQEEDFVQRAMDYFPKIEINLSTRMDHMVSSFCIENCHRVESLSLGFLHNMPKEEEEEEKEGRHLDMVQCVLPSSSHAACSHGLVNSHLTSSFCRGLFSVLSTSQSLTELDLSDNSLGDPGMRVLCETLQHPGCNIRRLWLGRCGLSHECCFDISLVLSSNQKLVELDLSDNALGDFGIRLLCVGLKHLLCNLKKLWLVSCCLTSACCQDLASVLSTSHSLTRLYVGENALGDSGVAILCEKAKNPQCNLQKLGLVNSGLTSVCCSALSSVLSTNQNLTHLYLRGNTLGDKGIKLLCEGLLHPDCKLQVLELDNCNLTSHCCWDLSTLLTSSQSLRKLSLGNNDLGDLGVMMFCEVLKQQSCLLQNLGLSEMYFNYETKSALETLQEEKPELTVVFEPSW
# Sequence of Serine/threonine-protein phosphatase (Q9BPW0 whole entry): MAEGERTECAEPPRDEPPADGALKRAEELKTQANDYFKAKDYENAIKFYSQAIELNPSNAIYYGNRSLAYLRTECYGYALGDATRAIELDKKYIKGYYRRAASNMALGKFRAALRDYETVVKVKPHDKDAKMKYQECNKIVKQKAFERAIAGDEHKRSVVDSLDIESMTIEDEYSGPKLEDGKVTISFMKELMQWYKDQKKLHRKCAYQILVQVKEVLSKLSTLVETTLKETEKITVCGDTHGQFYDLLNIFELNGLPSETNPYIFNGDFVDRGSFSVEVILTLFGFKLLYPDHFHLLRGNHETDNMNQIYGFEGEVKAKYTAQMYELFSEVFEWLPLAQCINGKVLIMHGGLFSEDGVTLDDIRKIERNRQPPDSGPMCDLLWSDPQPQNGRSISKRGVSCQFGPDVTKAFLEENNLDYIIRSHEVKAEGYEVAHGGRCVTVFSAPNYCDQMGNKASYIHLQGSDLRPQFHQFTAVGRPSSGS
# Sequence of Serine/threonine-protein phosphatase PP1-alpha catalytic subunit (P62136 whole entry): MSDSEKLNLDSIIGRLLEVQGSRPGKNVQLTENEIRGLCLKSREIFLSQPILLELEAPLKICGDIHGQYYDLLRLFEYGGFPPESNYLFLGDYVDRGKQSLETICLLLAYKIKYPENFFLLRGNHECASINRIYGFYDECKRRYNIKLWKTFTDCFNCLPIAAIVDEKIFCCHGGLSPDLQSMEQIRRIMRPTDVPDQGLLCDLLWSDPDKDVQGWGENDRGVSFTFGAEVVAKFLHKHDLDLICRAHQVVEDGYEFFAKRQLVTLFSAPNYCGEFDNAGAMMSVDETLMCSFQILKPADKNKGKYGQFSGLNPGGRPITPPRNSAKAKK
# Sequence of Bcl-2-like protein 10 (Q9HD36 whole entry): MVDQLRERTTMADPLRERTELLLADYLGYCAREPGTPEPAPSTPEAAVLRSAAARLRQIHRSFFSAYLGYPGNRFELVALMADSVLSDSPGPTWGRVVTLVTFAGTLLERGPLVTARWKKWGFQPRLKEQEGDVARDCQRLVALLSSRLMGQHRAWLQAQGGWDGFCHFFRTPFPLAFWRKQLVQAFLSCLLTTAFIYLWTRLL
# Sequence of Luciferin 4-monooxygenase (P08659 whole entry): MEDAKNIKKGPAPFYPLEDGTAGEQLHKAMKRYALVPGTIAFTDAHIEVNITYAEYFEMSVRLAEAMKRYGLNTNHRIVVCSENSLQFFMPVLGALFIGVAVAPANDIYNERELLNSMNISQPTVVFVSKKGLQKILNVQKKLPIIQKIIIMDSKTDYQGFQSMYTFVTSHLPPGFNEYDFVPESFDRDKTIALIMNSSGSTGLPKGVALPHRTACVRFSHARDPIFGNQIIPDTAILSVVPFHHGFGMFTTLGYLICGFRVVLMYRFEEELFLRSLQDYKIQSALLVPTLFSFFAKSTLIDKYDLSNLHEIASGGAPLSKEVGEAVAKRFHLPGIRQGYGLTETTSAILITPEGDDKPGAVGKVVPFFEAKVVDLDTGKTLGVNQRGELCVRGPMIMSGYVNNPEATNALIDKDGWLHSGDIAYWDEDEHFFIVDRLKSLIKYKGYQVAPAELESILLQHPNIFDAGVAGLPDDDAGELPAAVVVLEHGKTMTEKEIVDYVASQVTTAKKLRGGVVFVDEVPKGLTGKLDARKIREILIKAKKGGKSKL
# Sequence of G2/mitotic-specific cyclin-B1 (P14635 whole entry): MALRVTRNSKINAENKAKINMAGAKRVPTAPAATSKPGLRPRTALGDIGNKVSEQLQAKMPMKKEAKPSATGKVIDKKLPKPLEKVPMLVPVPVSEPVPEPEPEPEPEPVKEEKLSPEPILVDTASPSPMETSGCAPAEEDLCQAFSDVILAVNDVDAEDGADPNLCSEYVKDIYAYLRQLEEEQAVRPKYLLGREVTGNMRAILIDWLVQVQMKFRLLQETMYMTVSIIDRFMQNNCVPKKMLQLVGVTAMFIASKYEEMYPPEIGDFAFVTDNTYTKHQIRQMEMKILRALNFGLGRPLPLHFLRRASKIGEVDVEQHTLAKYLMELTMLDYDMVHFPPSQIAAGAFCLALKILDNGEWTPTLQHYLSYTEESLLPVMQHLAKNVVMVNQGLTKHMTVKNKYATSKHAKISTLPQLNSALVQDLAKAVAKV
# Sequence of Induced myeloid leukemia cell differentiation protein Mcl-1 (Q07820 whole entry): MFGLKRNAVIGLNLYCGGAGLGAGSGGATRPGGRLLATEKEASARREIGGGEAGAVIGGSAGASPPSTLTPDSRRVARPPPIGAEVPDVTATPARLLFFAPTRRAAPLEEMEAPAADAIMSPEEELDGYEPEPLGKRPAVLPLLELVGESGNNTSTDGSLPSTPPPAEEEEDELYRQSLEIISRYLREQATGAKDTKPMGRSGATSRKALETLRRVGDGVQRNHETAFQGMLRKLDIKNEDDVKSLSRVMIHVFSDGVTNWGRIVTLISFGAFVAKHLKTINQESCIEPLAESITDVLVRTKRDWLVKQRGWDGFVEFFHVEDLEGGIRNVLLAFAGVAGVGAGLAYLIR
# Sequence of G-protein coupled receptor 55 (Q9Y2T6 whole entry): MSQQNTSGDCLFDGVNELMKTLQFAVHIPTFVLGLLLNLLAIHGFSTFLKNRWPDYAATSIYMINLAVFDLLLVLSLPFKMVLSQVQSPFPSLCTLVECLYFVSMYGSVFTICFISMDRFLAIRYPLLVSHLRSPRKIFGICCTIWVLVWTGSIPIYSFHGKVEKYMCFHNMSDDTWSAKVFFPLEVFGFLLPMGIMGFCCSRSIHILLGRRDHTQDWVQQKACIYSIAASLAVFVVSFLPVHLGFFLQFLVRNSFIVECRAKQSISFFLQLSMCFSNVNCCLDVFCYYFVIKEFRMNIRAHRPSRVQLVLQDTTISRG
structure (smiles),measurement,setting,value
CCOC(=O)c1cnc(-n2nc(C)cc2C)nc1NCc1ccc2c(c1)OCO2,IC50,[1],5.21 µM (active)
same,EC50,[2],2.36 µM (active)
same,IC50,[3],> 67 µM (not active)
same,EC50,[4],> 60 µM (not active)
same,AC50,[5],8.74 µM (active)
same,AC50,[6],63 µM (active)
same,AC50,[7],16.1 µM (active)
CCn1ccc(C(=O)Nc2ccc(S(=O)(=O)Nc3ccccc3OC)cc2)n1,IC50,Bcl-2-like protein 10,> 100 µM (inactive)
COc1cccc(/C=N/Nc2ccc(C(=O)O)cc2)c1O,EC50,[8],0.693 µM (active)
same,EC50,[9],0.17 µM (active)
same,IC50,[10],> 39.8 µM (not active)
same,IC50,[11],> 80 µM (inactive)
same,AC50,[12],0.333 µM (active)
same,AC50,A-375,29.9 µM (active)
same,AC50,Paired box protein Pax-8,0.635 µM (active)
same,AC50,[13],21.6 µM (active)
CN(C)c1ccc(/C=C/C(=O)c2c(O)oc3ccccc3c2=O)cc1,IC50,[14],> 55.7 µM (not active)
same,IC50,Insulin-degrading enzyme,> 2.07 µM (active)
same,EC50,[15],19.5 µM (inactive)
same,EC50,[16],7.5 µM (active)
O=C(NCCC1=CCCCC1)c1c(O)nc2sccn2c1=O,CC50,[17],13.8 µM (active)
same,IC50,[18],3.8 µM (active)
CN(C)S(=O)(=O)c1cccc(-c2nn(-c3ccccc3)cc2/C=C2\SC(=S)NC2=O)c1,IC50,SUMO-activating enzyme [19],7.59 µM (active)
same,IC50,[20],7.08 µM (active)
same,IC50,SUMO-activating enzyme [21],10.6 µM (active)
same,IC50,[22],1.44 µM (active)
Cc1cccn2c1nc(=S)n2C(=O)c1ccco1,EC50,[23],> 49.7 µM (not active)
same,EC50,[24],1.05 µM (active)
same,EC50,Wee1-like protein kinase,> 49.7 µM (not active)
same,EC50,H4,0.104 µM (active)
CC(C)Oc1ccc(C(=O)N/N=C/c2ccc(-c3ccc(S(=O)(=O)Nc4ncccn4)cc3)o2)cc1,IC50,Aminopeptidase N,23.1 µM (active)
O=C(Nc1ccncc1)c1ccc2ncsc2c1,CC50,[25],> 100 µM (active)
same,AC50,[26],1.34 µM (active)
